Experimental data from PubChem BioAssay (NCI).
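Each compound was tested at five concentrations against cells in 96-well plates for 48 hours. TGI is the concentration that stops growth completely.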

Key:
Assay in all cases: inhibition of tumour cell growth, NCI panel, 48 h
HT29 colon = test system: HT29 colon
PC-3 prostate = test system: PC-3 prostate
UACC-257 melanoma = test system: UACC-257 melanoma
SK-MEL-5 melanoma = test system: SK-MEL-5 melanoma
SN12C renal = test system: SN12C renal
CAKI-1 renal = test system: CAKI-1 renal
HCT-15 colon = test system: HCT-15 colon
SK-MEL-2 melanoma = test system: SK-MEL-2 melanoma
HS 578T breast = test system: HS 578T breast
MOLT-4 leukemia = test system: MOLT-4 leukemia
NCI-H460 lung = test system: NCI-H460 lung
U251 CNS = test system: U251 CNS
RXF 393 renal = test system: RXF 393 renal
RPMI-8226 leukemia = test system: RPMI-8226 leukemia
KM12 colon = test system: KM12 colon
HCC-2998 colon = test system: HCC-2998 colon
A549 NSCLC = test system: A549 NSCLC
NCI/ADR-RES ovarian = test system: NCI/ADR-RES ovarian
MCF7 breast = test system: MCF7 breast
MALME-3M melanoma = test system: MALME-3M melanoma
A498 renal = test system: A498 renal
NCI-H522 lung = test system: NCI-H522 lung
HL-60(TB) leukemia = test system: HL-60(TB) leukemia
COLO 205 colon = test system: COLO 205 colon
OVCAR-5 ovarian = test system: OVCAR-5 ovarian
HOP-92 NSCLC = test system: HOP-92 NSCLC
M14 melanoma = test system: M14 melanoma
OVCAR-3 ovarian = test system: OVCAR-3 ovarian
BT-549 breast = test system: BT-549 breast
UACC-62 melanoma = test system: UACC-62 melanoma
SF-268 CNS = test system: SF-268 CNS
CCRF-CEM leukemia = test system: CCRF-CEM leukemia
NCI-H23 lung = test system: NCI-H23 lung
MDA-N = test system: MDA-N
DU-145 prostate = test system: DU-145 prostate
SR leukemia = test system: SR leukemia
SW-620 colon = test system: SW-620 colon
LOX IMVI melanoma = test system: LOX IMVI melanoma
786-0 renal = test system: 786-0 renal
OVCAR-8 ovarian = test system: OVCAR-8 ovarian
EKVX NSCLC = test system: EKVX NSCLC
SF-295 CNS = test system: SF-295 CNS
NCI-H226 lung = test system: NCI-H226 lung
TK-10 renal = test system: TK-10 renal
HOP-62 NSCLC = test system: HOP-62 NSCLC
OVCAR-4 ovarian = test system: OVCAR-4 ovarian
MDA-MB-231 breast = test system: MDA-MB-231 breast
SK-OV-3 ovarian = test system: SK-OV-3 ovarian
T-47D breast = test system: T-47D breast
MDA-MB-435 = test system: MDA-MB-435
IGROV1 ovarian = test system: IGROV1 ovarian
SF-539 CNS = test system: SF-539 CNS
HCT-116 colon = test system: HCT-116 colon
SNB-19 CNS = test system: SNB-19 CNS
UO-31 renal = test system: UO-31 renal
K-562 leukemia = test system: K-562 leukemia
ACHN renal = test system: ACHN renal
SK-MEL-28 melanoma = test system: SK-MEL-28 melanoma
SNB-75 CNS = test system: SNB-75 CNS

COc1cc2c(cc1OCCCC(=O)Nc1cc(C(=O)Nc3cc(C(=O)Nc4cc(C(=O)NCCCN(C)C)n(C)n4)n(C)c3)n(C)c1)N=CC1CCCN1C2=O (centres undefined)
TGI (HT29 colon): 44.5 µM | TGI (PC-3 prostate): 48.9 µM | TGI (UACC-257 melanoma): 44 µM | TGI (SK-MEL-5 melanoma): 42.6 µM | TGI (SN12C renal): 51.3 µM | TGI (CAKI-1 renal): 78.1 µM | TGI (HCT-15 colon): > 100 µM | TGI (SK-MEL-2 melanoma): 49.9 µM | TGI (HS 578T breast): 48 µM | TGI (MOLT-4 leukemia): 32.4 µM | TGI (NCI-H460 lung): > 100 µM | TGI (U251 CNS): 59.8 µM | TGI (RXF 393 renal): 42.3 µM | TGI (RPMI-8226 leukemia): 82.8 µM | TGI (KM12 colon): 64.1 µM | TGI (HCC-2998 colon): 76.5 µM | TGI (A549 NSCLC): > 100 µM | TGI (NCI/ADR-RES ovarian): > 100 µM | TGI (MCF7 breast): 58.7 µM | TGI (MALME-3M melanoma): 36.6 µM | TGI (A498 renal): 57.7 µM | TGI (NCI-H522 lung): 4.77 µM | TGI (HL-60(TB) leukemia): 16.3 µM | TGI (COLO 205 colon): > 100 µM | TGI (OVCAR-5 ovarian): > 100 µM | TGI (HOP-92 NSCLC): 51.1 µM | TGI (M14 melanoma): 72.2 µM | TGI (OVCAR-3 ovarian): > 100 µM | TGI (BT-549 breast): 44.7 µM | TGI (UACC-62 melanoma): 39.9 µM | TGI (SF-268 CNS): 63.1 µM | TGI (CCRF-CEM leukemia): > 100 µM | TGI (NCI-H23 lung): 78.5 µM | TGI (MDA-N): 41.4 µM | TGI (DU-145 prostate): > 100 µM | TGI (SR leukemia): 25.4 µM | TGI (SW-620 colon): 48.6 µM | TGI (LOX IMVI melanoma): 55.5 µM | TGI (786-0 renal): > 100 µM | TGI (OVCAR-8 ovarian): > 100 µM | TGI (EKVX NSCLC): > 100 µM | TGI (SF-295 CNS): > 100 µM | TGI (NCI-H226 lung): 51.3 µM | TGI (TK-10 renal): 39.4 µM | TGI (HOP-62 NSCLC): > 100 µM | TGI (OVCAR-4 ovarian): 38.6 µM | TGI (MDA-MB-231 breast): > 100 µM | TGI (SK-OV-3 ovarian): > 100 µM | TGI (T-47D breast): > 100 µM | TGI (MDA-MB-435): 64.5 µM | TGI (IGROV1 ovarian): 49.1 µM | TGI (SF-539 CNS): 48.5 µM | TGI (HCT-116 colon): > 100 µM | TGI (SNB-19 CNS): 49.7 µM | TGI (UO-31 renal): 53 µM | TGI (K-562 leukemia): 39.8 µM | TGI (ACHN renal): 40 µM | TGI (SK-MEL-28 melanoma): 33.9 µM | TGI (SNB-75 CNS): 44.7 µM
